The conditions of data set [1]: double bond (vinylene) moiety apt to be isomerized; cited from earlier work.
A further data set concerns adenosine A2 receptor. As to conditions: cited from earlier work.
Data set [2] in a line: Crystallinity by powder X-ray diffraction. It counts as physicochemical. The source says:
Although there is no particular limitation for the “microcrystal(s) of (E)-8-(3,4-dimethoxystyryl)-1,3-diethyl-7-methyl-3,7-dihydro-1H-purine-2,6-dione having an average particle size of less than 50 μm” (that is “microcrystal(s) of Compound 1”) of the present invention so far as it is the crystalline Compound 1 having an average particle size of less than 50 μm, among them microcrystal(s) having an average particle size of 0.5 to 20 μm is/are preferable. The “microcrystal(s) of Compound 1” having a crystallinity of 20% or more is/are more preferable. Among them, the “microcrystal(s) of Compound 1” having a crystallinity of 30% or more is/are still more preferable and the “microcrystal(s) of Compound 1” having a crystallinity of 40% or more is/are most preferable. Incidentally, the average particle size thereof can be measured by using, for example, a laser diffraction/scattering particle size distribution analyzer (e.g., Mastersizer 2000, Ver. 2.00J; manufactured by Malvern Instruments), an image analyzer (e.g., Luzex® AP; manufactured by Nileco) or the like, and can be calculated as the mean of the particle size distribution. The crystallinity thereof can be calculated by measuring the integral intensity of the diffraction peak at a specific angle of diffraction 2θ by using a powder X-ray diffractmeter (e.g., JDX 8030; manufactured by Nippon Denshi).
The crystallinity of Compound 1 in each Sample (hereinafter, may be just referred to as the crystallinity) was calculated by the following method after measuring the diffraction peak of each Sample by changing from 0° to 40° at the angle of diffraction 2θ by a powder X-ray diffractmeter.
A calibration curve used for the calculation of the relative crystallinity was prepared by measuring the integral intensity of the diffraction peak at angle of diffraction 2θ=about 16° using physical mixtures prepared in various ratios and then plotting the ratios of amounts of the “crystalline Compound 1” in the physical mixtures against the integral intensities of the diffraction peaks respectively.
An integral intensity of the diffraction peak of the sample at the angle of diffraction 2θ=about 16° was measured. An amount of the “crystalline Compound 1” in each sample was calculated from the measured integral intensity on the basis of the above-described calibration curve, and the relative crystallinity (%) of each sample was determined from the following formula as the ratio of the amount of “Compound 1” (“crystalline Compound 1” and “an amorphous Compound 1”) against the amount of the “crystalline Compound 1”. A crystallinity (%) was determined by a proportional calculation from the relative crystallinity (%) determined hereinabove and the crystallinity (87.2%) of the unpulverized “crystals of Compound 1”. Relative Crystallinity (%)=(Amount of the “crystalline Compound 1”/Amount of “Compound 1”)×100 <Method for Measurement of Photostability>

Data set [3] can be described thus: Comparison of absorption in oral administration (plasma concentration). Particulars: male SD rats; for Cmax (maximum concentration in plasma): 0.3 mg/mL suspension in 0.5 w/v % methyl cellulose at 10 mL/kg, mean ± s.e.m., three rats. Type of data set: in vivo, male rats of SD strain. As for the experimental part: Each of Crystal B (the average particle size of crystals: 181 μm) and Microcrystals B (the average particle size of crystals: 11 μm) obtained in Example 3 was suspended in a 0.5 w/v % aqueous solution of methyl cellulose to prepare a drug liquid (0.3 mg/mL) for administration. The resulting drug liquid was orally administered to male rats of SD strain (body weight: 209 to 233 g; Nippon Charles River) at the dose of 10 mL/kg. Blood of the rat (about 0.3 mL for each time) was sequentially collected from tail vein by using a heparin-treated capillary tube 0.25, 0.5, 1, 2, 4, 6, 8, 12 and 24 hour(s) after the administration. The resulting blood was centrifuged (1,950×g, 10 minutes, 4° C.) and plasma was separated. Concentration of “Compound 1” in the resulting plasma was measured by HPLC and mean value from three rats was calculated. Maximum concentration in plasma (Cmax), the area under the plasma curve of concentration-time curve between the administration and the point which can be determined quantitatively finally (AUC0-t) and the area under the plasma curve of concentration-time curve between the administration and infinitive time (AUC0-∞), of case in which each of Crystals B and Microcrystals B were orally administered to the rat, are shown in Table 2. Incidentally, conditions for the measurement by HPLC are as follows. Instrument for analysis: Series L-7000 (manufactured by Hitachi) Column: Ultron VX-ODS (φ4.6×150 mm) Column temperature: 30° C. Mobile phase: 10 mmol/L acetate buffer (pH 5.7)/acetonitrile=53/47 […] Detecting condition: UV 360 nm

Data set [4] is described as follows: Solubility in water at room temperature against elapsed time. Particulars: 2 mg in water (200 mL) at room temperature. Type of data set: physicochemical. As for the experimental part:
By using Crystals A (the average particle size of crystals: 167 μm, 2 mg) and Microcrystals A (the particle size of microcrystals D100=8.7 μm, 2 mg) obtained in Example 2, the solubility of each of them in water (200 mL) at room temperature was measured.

Data set [5] is described as follows: Aggregation and dispersing property during steps for preparing pharmaceutical formulation. Type of data set: physicochemical.
A short description of data set [6]: Photostability: residual ratio of Compound 1 after irradiation under a fluorescent lamp. It counts as physicochemical. As to conditions: no HPMC, unpulverized; about 5,000 lx fluorescent lamp, 8 hours. As for the experimental part:
Photostability of each sample was traced by measuring the residual ratio (%) of “Compound 1” in the sample according to the following method.
Transparent glass vials, in which the samples were weighed and filled, were stored at about 5,000 lx under a fluorescent lamp, and each sample was sampled 8 hours after the irradiation. The sampled sample was dissolved in a mixed solvent of water and acetonitrile (water:acetonitrile=60:40), and then the amount of “Compound 1” in the sample was determined quantitatively by using a high-performance liquid chromatography (HPLC). Amount of “Compound 1” before irradiation was defined as 100% and the amount of “Compound 1” after irradiation thereto was calculated as the residual ratio (%).
Conditions for the measurement by HPLC are as follows.
Instrument for analysis: Series LC-6 (manufactured by Shimadzu)
Column: Inertsil ODS-2 (φ6×150 mm)
Column temperature: 25° C.
Mobile phase: 50 mmol/L KH2PO4 (pH 6.1, KOH)/acetonitrile=60/40
Detecting condition: UV 248 nm

For data set [7] the following is noted: crystals synthesized by the prior-art process; cited from earlier work.
Where [8] appears, read: drug substance crystals as obtained.

Here are results for five molecules from US7541363B2, “Microcrystal” (Kyowa Hakko Kirin Co., Ltd., priority 2003, dated 2009).

Consider `CCn1c(=O)c2c(nc(/C=C/c3ccc(OC)c(OC)c3)n2C)n(CC)c1=O` [Compound 1, (E)-8-(3,4-dimethoxystyryl)-1,3-diethyl-7-methyl-3,7-dihydro-1H-purine-2,6-dione], for which the stability under light entry in data set [1] was “unstable particularly under light”. Further, in the data set with adenosine A2 receptor, the “adenosine A2 receptor antagonistic activity” value was “shows an adenosine A2 receptor antagonistic activity”.

`CCn1c(=O)c2c(nc(/C=C/c3ccc(OC)c(OC)c3)n2C)n(CC)c1=O` [Crystals B, (E)-8-(3,4-dimethoxystyryl)-1,3-diethyl-7-methyl-3,7-dihydro-1H-purine-2,6-dione] displayed a crystallinity in data set [2] (setting [8]) of 71.6%. In addition, in data set [3], the “Cmax (maximum concentration in plasma)” value is 72.6 ± 31.7 ng/mL.

As for `CCn1c(=O)c2c(nc(/C=C/c3ccc(OC)c(OC)c3)n2C)n(CC)c1=O` [Microcrystals A, (E)-8-(3,4-dimethoxystyryl)-1,3-diethyl-7-methyl-3,7-dihydro-1H-purine-2,6-dione], in data set [2] (setting [8]), the crystallinity was 84.6%. The “solubility of Compound 1” value in data set [4] is on record as “good solubility”. The dissolving velocity result in data set [4] (compared with Crystals A) is “quick dissolving velocity as compared to Crystals A”. The “aggregation of the crystals during steps for preparing pharmaceutical formulation” value in data set [5] was “no phenomenon of aggregation”. For the same molecule, in data set [5] (compared with Crystals A), the dispersing property entry is “excellent dispersing property as compared to Crystals A”.

Molecule `CCn1c(=O)c2c(nc(/C=C/c3ccc(OC)c(OC)c3)n2C)n(CC)c1=O` [Microcrystals B, (E)-8-(3,4-dimethoxystyryl)-1,3-diethyl-7-methyl-3,7-dihydro-1H-purine-2,6-dione] returned a crystallinity in data set [2] (setting [8]) of 67.3%. Besides, the “Cmax (maximum concentration in plasma)” value in data set [3] came out at 238 ± 4 ng/mL. The “absorption in oral administration” value in data set [3] (compared with Crystals B) is “better absorption in oral administration than Crystals B”.

As to `CCn1c(=O)c2c(nc(/C=C/c3ccc(OC)c(OC)c3)n2C)n(CC)c1=O` [Unpulverized “Crystals of Compound 1”, (E)-8-(3,4-dimethoxystyryl)-1,3-diethyl-7-methyl-3,7-dihydro-1H-purine-2,6-dione], the crystallinity in data set [2] (setting [8]) is on record as 87.2%; in data set [2] (no HPMC, unpulverized) it was 87.2%. In addition, the “Residual Rate of “Compound 1”” value in data set [6] is 100.0%. In addition, in data set [7], the solubility in water entry was “low”.
